Measurements from patent publication US20100168150A1, “Camptothecin Analogue Compounds, a Process for Their Preparation and Pharmaceutical Compositions Containing Them” (Les Laboratoires Servier, priority 2005, published 2010).
Where a name gives a salt, the structure may show the parent alone.

Assays:
murine leukaemia L1210 = test: In vitro cytotoxicity, Microculture Tetrazolium Assay, L1210; type: cell-based; settings: L1210 cells, 48 hours exposure, inhibition of proliferation
Procedure: (§1) The murine leukaemia L1210 and the human colon carcinomas HCT116 and HT29 were used in vitro. The cells are cultured in RPMI 1640 complete culture medium containing 10% foetal calf serum, 2 mM glutamine, 50 units/ml of penicillin, 50 μg/ml of streptomycin and 10 mM Hepes, pH=7.4. The cells are distributed on microplates and are exposed to the cytotoxic compounds for 4 doubling times, that is to say 48 hours (L1210) or 96 hours (HCT116 and HT29). The number of viable cells is then quantified by a colorimetric assay, the Microculture Tetrazolium Assay (J. Carmichael et al., Cancer Res.; 47, 936-942, (1987)). The results are expressed in terms of the IC50 (the concentration of cytotoxic agent which inhibits proliferation of the treated cells by 50%).

[1] = system: human colon carcinoma HCT116; test: In vitro cytotoxicity, Microculture Tetrazolium Assay, HCT116; type: cell-based; settings: HCT116 cells, 96 hours exposure, inhibition of proliferation
Procedure: as §1

[2] = system: human colon carcinoma HT29; test: In vitro cytotoxicity, Microculture Tetrazolium Assay, HT29; type: cell-based; settings: HT29 cells, 96 hours exposure, inhibition of proliferation
Procedure: as §1

[3] = In vivo toxicity, maximum tolerated dose; settings: nude (bab/c), mouse, in vivo; nude mice, intravenous administration once per week for 3 weeks; largest dose causing neither death nor weight loss of more than 20%
Procedure: (§2) The compounds are formulated in a Tween/water mixture and administered by the intravenous (i.v.) route (administration over three weeks at the rate of once per week, the injection volume being 0.2 ml/mouse with increasing doses of compounds of 6.25, 12.5, 25 and 50 mg/kg) to nude mice (bab/c supplied by Iffa Credo) weighing about 20 g. The maximum tolerated dose (MTD) is the largest dose causing neither death nor a weight loss of more than 20%.

nude mice = test: In vivo toxicity, maximum tolerated dose; settings: i.v. once per week for 3 weeks, compared with compound of Preparation 2
Procedure: as §2

HCT116 = test: In vivo activity with respect to HCT116; settings: compared with non-esterified homologue (compound of Preparation 2)

Row | SMILES | IC50 (murine leukaemia L1210; Mus musculus) | IC50 ([1]; Homo sapiens, HCT-116) | IC50 ([2]; Homo sapiens, HT-29) | further results
1 | CCC1(OC(=O)CCN2CCCCC2)C(=O)Cc2c1cc1n(c2=O)Cc2c-1nc1cc3c(cc1c2C)OCO3 (stereo not drawn) [Example 1, 7-Ethyl-2,3-methylenedioxy-13-methyl-8,10-dioxo-8,9,10,12-tetrahydro-7H-cyclopenta[6,7]indolizino[1,2-b]quinolin-7-yl 3-piperidinopropanoate hydrochloride] | 4.2 nM |  |  | 
2 | CCC1(OC(=O)CCN2CCCCC2)C(=O)Cc2c1cc1n(c2=O)Cc2c-1nc1cc3c(cc1c2C1CCC1)OCO3.Cl (stereo not drawn) [Example 2, 7-Ethyl-2,3-methylenedioxy-13-cyclobutyl-8,10-dioxo-8,9,10,12-tetrahydro-7H-cyclopenta[6,7]indolizino[1,2-b]quinolin-7-yl 3-piperidinopropanoate hydrochloride] |  | 1.5 nM | 3.7 nM | MTD at 3 weeks [3]: 25 mg/kg; toxicity relative to the non-esterified homologue (compound of Preparation 2) (nude mice): two times less toxic; in vivo activity with respect to HCT116 compared with compound of Preparation 2 (HCT116): same in vivo activity
3 | CCC1(OC(=O)CCN2CC[C@H]3CCCC[C@@H]3C2)C(=O)Cc2c1cc1n(c2=O)Cc2c-1nc1cc3c(cc1c2C1CCC1)OCO3 (stereo partly drawn) [Example 23, 7-Ethyl-2,3-methylenedioxy-13-cyclobutyl-8,10-dioxo-8,9,10,12-tetrahydro-7H-cyclopenta[6,7]indolizino[1,2-b]quinolin-7-yl 3-[(4aR,8aS)-octahydroisoquinolin-2(1H)-yl]propanoate hydrochloride] | 7.3 nM | 1.1 nM | 2.4 nM | 
4 | CCC1(OC(=O)CCN2CCc3cc(OC)c(OC)cc3C2)C(=O)Cc2c1cc1n(c2=O)Cc2c-1nc1cc3c(cc1c2C1CCC1)OCO3 (stereo not drawn) [Example 24, 7-Ethyl-2,3-methylenedioxy-13-cyclobutyl-8,10-dioxo-8,9,10,12-tetrahydro-7H-cyclopenta[6,7]indolizino[1,2-b]quinolin-7-yl 3-[(6,7-dimethoxy-3,4-dihydroisoquinolin-2(1H)-yl]propanoate hydrochloride] |  |  |  | IC50 (murine leukaemia L1210): 7.9 nM; IC50 [1]: 0.7 nM; IC50 [2]: 2.6 nM
